After the bases stand the sugars from the 5' end (letter, count) and the backbone: PS all phosphorothioate, else s phosphorothioate and o phosphodiester by linkage. Methylation of C is not given here. e = 2'-O-(2-methoxyethyl) (MOE); k = constrained ethyl (cEt); d = 2'-deoxy (DNA); m = 2'-O-methyl
Biological target: HSD17B13
Settings: ASO, HepaRG

Sequence | target mRNA inhibition (1 µM) | other results
CGGCCTATTCTTCTGT (sugars k3 d10 k3, PS) | 25% | –
CGGTCACCTTTCATAA (sugars kkdddddddddkekek, PS) | 70% | –
CGTAAAATTGTGTCTC (sugars k3 d10 k3, PS) | 43% | –
CGTAAATATTCTTGAG (sugars k3 d10 k3, PS) | 61% | –
CGTAACCATGCATTAA (sugars k3 d10 k3, PS) | 68% | –
CGTATTTGAGATTCAC (sugars k3 d10 k3, PS) | 59% | –
CGTCAAATAGGGCTGG (sugars k3 d10 k3, PS) | 53% | –
CGTCCAAAAGTGTCCT (sugars k3 d10 k3, PS) | 53% | –
CGTCCTAGGAAACAAA (sugars k3 d10 k3, PS) | 45% | –
CGTTTGACTGCTGCTA (sugars k3 d10 k3, PS) | 58% | –
CTAAAATTGTCTAAAC (sugars k3 d10 k3, PS) | 35% | –
CTAAACATCTCTGGGA (sugars k3 d1 m1 d8 k3, PS) | 32% | –
CTAAACATCTCTGGGA (sugars k3 d10 k3, PS) | 62% | –
CTAAACCCTGGAGCAG (sugars k3 d10 k3, PS) | 42% | –
CTAAAGGAGATCTGAG (sugars k3 d10 k3, PS) | 47% | –
CTAAATTACTCCGTTC (sugars k3 d10 k3, PS) | 20% | –
CTAAATTATTGCCTGA (sugars k3 d10 k3, PS) | 39% | –
CTAACCTGACACATAT (sugars k3 d10 k3, PS) | 18% | –
CTAAGTTATTATCCCC (sugars k3 d10 k3, PS) | 70% | target mRNA inhibition (0.02 µM): 16%; target mRNA inhibition (0.078 µM): 22%; target mRNA inhibition (0.313 µM): 48%; target mRNA inhibition (1.25 µM): 72%; target mRNA inhibition (5 µM): 95%
CTAATATTGAGGCACT (sugars k3 d10 k3, PS) | 51% | –

Sequence | target mRNA inhibition (1 µM) | other results
CTAATCTCAGTACTCC (sugars k3 d10 k3, PS) | 53% | –
CTACAAAACTGGTATC (sugars k3 d10 k3, PS) | 0% | –
CTACACTAATATTGAG (sugars kkdddddddddkekek, PS) | 5% | –
CTACAGATTGGAATGC (sugars k3 d10 k3, PS) | 52% | –
CTACATGACCTGGGTC (sugars k3 d10 k3, PS) | 59% | –
CTACATGGATCCAACA (sugars k3 d10 k3, PS) | 5% | –
CTACTTCACTATATTG (sugars k3 d10 k3, PS) | 33% | –
CTACUTGAACAGTCTT (sugars k3 d1 m1 d8 k3, PS) | 79% | target mRNA inhibition (0.02 µM): 9%; target mRNA inhibition (0.078 µM): 22%; target mRNA inhibition (0.313 µM): 46%; target mRNA inhibition (1.25 µM): 77%; target mRNA inhibition (5 µM): 76%
CTAGGATTAATCATGG (sugars k3 d10 k3, PS) | 65% | –
CTAGGGAAATCTTTCA (sugars k3 d10 k3, PS) | 48% | –
CTAGTGGTAATGGTAA (sugars k3 d10 k3, PS) | 62% | –
CTATAGTAATCACAAG (sugars k3 d1 m1 d8 k3, PS) | 37% | –
CTCAAAGTCAGTATCC (sugars k3 d10 k3, PS) | 70% | –
CTCAACAGAGAATTGT (sugars k3 d10 k3, PS) | 29% | –
CTCAGGCTGTAAGAGT (sugars kkdddddddddkekek, PS) | 10% | –
CTCATTTAGCAGCTTG (sugars k3 d10 k3, PS) | 70% | target mRNA inhibition (0.02 µM): 1%; target mRNA inhibition (0.078 µM): 10%; target mRNA inhibition (0.313 µM): 46%; target mRNA inhibition (1.25 µM): 65%; target mRNA inhibition (5 µM): 90%
CTCCTGAGTCTTTCTA (sugars k3 d10 k3, PS) | 23% | –
CTCTAAGTGTAAGAGA (sugars k3 d10 k3, PS) | 28% | –
CTCTATTGATTGGCTT (sugars k3 d10 k3, PS) | 65% | –

— the OligoGym collection
